In patent US9346810B2, “Pyrrolopyrimidine compounds and uses thereof” (HUTCHISON MEDIPHARMA LIMITED, priority 2010, dated 2016):

Experiments:
Format in all cases: biochemical
[1] = biological target: Recombinant human JAK3 catalytic domain (Homo sapiens (Human), UniProt P52333); experiment: JAK3 kinase assay (Z'-LYTE, Tyr 6 Peptide); settings: read-out: IC50 in JAK3 kinase assay
Procedure: (§1) JAK1/2/3 kinase assay are performed in vitro using Kit-Tyr 6 Peptide (Invitrogen, Cat. No. PV4122). TYK2 kinase assay are performed in vitro using Z′-LYTE™ Kinase Assay Kit-Tyr 3 Peptide (Invitrogen, Cat. No. PV3192). […] All compounds are initially tested at 8 different concentrations (1 μM down to 0.0003 μM) using a 1:3 serial dilution scheme.

[2] = biological target: Recombinant human JAK1 catalytic domain (Homo sapiens (Human), UniProt P23458); experiment: JAK1 kinase assay (Z'-LYTE, Tyr 6 Peptide); settings: read-out: IC50 in JAK1 kinase assay
Procedure: as §1

[3] = biological target: Recombinant human JAK2 catalytic domain (Homo sapiens (Human), UniProt O60674); experiment: JAK2 kinase assay (Z'-LYTE, Tyr 6 Peptide); settings: read-out: IC50 in JAK2 kinase assay
Procedure: as §1

Recombinant human JAK1 catalytic domain, sequence (P23458 875-1153): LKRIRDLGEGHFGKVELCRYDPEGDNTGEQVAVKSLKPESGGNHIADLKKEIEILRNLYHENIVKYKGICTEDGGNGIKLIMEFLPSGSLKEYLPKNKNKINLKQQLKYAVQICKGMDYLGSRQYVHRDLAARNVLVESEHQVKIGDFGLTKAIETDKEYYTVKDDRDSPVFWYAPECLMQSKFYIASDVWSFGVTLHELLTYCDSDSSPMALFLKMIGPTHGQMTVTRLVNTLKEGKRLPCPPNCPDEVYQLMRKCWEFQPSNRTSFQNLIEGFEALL
Recombinant human JAK2 catalytic domain, sequence (O60674 849-1124): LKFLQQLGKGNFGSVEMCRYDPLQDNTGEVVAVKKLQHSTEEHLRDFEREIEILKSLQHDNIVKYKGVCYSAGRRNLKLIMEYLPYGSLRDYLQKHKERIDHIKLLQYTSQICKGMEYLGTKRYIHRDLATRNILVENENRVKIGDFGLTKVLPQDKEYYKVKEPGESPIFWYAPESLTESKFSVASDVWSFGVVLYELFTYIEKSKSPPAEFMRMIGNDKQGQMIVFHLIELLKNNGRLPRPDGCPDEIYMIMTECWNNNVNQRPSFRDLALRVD
Recombinant human JAK3 catalytic domain, sequence (P52333 822-1111): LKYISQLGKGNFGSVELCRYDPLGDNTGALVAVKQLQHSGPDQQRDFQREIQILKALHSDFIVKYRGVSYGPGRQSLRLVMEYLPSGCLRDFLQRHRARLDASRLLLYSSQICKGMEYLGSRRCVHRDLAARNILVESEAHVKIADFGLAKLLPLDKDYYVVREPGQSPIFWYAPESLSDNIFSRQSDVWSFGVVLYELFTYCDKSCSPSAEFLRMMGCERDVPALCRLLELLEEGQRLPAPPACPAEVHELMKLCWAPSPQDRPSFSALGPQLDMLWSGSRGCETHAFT

Structure (SMILES)	IC50 [1] [nM]	IC50 [2] [nM]	IC50 [3] [nM]
CN(c1ccc(Cl)cn1)[C@@H]1CCN(c2ncnc3[nH]ccc23)C1 [Compound 67]	1 to 100	1 to 100	1 to 100
Cc1cc(N(C)[C@@H]2CCN(c3ncnc4[nH]ccc34)C2)ncc1[N+](=O)[O-] [Compound 77]	100 to 1000	1 to 100	100 to 1000
COc1cc2ncnc(N(C)[C@@H]3CCN(c4ncnc5[nH]ccc45)C3)c2cc1OC [Compound 86]	100 to 1000	1 to 100	1 to 100
CN(c1ccc(C#N)cc1)[C@@H]1CCN(c2ncnc3[nH]ccc23)C1 [Compound 104]	100 to 1000	1 to 100	1 to 100
CN(c1ccnc(C#N)c1)[C@@H]1CCN(c2ncnc3[nH]ccc23)C1 [Compound 121]	1 to 100	1 to 100	1 to 100
CN(c1ccc(S(=O)(=O)NC2CC2)cn1)[C@@H]1CCN(c2ncnc3[nH]ccc23)C1 [Compound 236]	1 to 100	1 to 100	1 to 100
